Measured values taken from patent US8716303B2, “N-(hetero)aryl-pyrrolidine derivatives of pyrazol-4-yl-pyrrolo[2,3-d]pyrimidines and pyrrol-3-yl-pyrrolo[2,3-d]pyrimidines as janus kinase inhibitors” (Incyte Corporation, priority 2009, dated 2014).
pIC50: −log10 of the molar value. Structures can show the parent of a compound that is named as a salt.

Columns and labels:
[1] = target: T1, human JAK1 (a.a. 837-1142) (Homo sapiens, UniProt P23458); experiment: In vitro JAK kinase assay (HTRF, phosphorylation of a biotinylated peptide), JAK1; type: biochemical
T1 construct: human JAK1 (a.a. 837-1142); His tag (N); made in house; host or cells: insect cells (baculovirus)
T1 sequence (P23458 849-1154): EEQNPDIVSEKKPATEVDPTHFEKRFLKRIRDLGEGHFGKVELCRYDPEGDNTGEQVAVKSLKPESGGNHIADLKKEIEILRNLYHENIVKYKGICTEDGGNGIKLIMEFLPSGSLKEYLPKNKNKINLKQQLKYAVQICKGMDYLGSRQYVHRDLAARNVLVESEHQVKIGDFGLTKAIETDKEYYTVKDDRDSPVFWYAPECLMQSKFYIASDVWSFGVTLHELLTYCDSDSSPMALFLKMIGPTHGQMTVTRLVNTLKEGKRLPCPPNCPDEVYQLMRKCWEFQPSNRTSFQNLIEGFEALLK
Method: (§1) Compounds herein were tested for inhibitory activity of JAK targets according to the following in vitro assay described in Park et al., Analytical Biochemistry 1999, 269, 94-104. The catalytic domains of human JAK1 (a.a. 837-1142), Jak2 (a.a. 828-1132) and Jak3 (a.a. 781-1124) with an N-terminal His tag were expressed using baculovirus in insect cells and purified. The catalytic activity of JAK1, JAK2 or JAK3 was assayed by measuring the phosphorylation of a biotinylated peptide. The phosphorylated peptide was detected by homogenous time resolved fluorescence (HTRF). IC50s of compounds were measured for each kinase in the 40 microL reactions that contain the enzyme, ATP and 500 nM peptide in 50 mM Tris (pH 7.8) buffer with 100 mM NaCl, 5 mM DTT, and 0.1 mg/mL (0.01%) BSA. The ATP concentration in the reactions was 90 μM for Jak1, 30 μM for Jak2 and 3 μM for Jak3 for Km conditions. For the 1 mM IC50 measurements, ATP concentration in the reactions was 1 mM. Reactions were carried out at RT for 1 h and then stopped with 20 μL 45 mM EDTA, 300 nM SA-APC, 6 nM Eu-Py20 in assay buffer (Perkin Elmer, Boston, Mass.). Binding to the Europium labeled antibody took place for 40 min and HTRF signal was measured on a Fusion plate reader (Perkin Elmer, Boston, Mass.).
(§2) Compounds herein were tested for inhibitory activity of JAK1 and JAK2 targets according to the assay of Example A (experiments run at Km or 1 mM as indicated). The symbol “+” indicates an IC50<50 nM; the symbol “++” indicates an IC50≧50 and ≦100 nM; and the symbol “+++” indicates an IC50>100 and ≦500 nM.

[2] = target: T2, Jak2 (a.a. 828-1132) (Homo sapiens, UniProt O60674); experiment: In vitro JAK kinase assay (HTRF, phosphorylation of a biotinylated peptide), JAK2, reported as JAK2/JAK1 ratio; type: biochemical
T2 construct: Jak2 (a.a. 828-1132); His tag (N); made in house; host or cells: insect cells (baculovirus)
T2 sequence (O60674 828-1132): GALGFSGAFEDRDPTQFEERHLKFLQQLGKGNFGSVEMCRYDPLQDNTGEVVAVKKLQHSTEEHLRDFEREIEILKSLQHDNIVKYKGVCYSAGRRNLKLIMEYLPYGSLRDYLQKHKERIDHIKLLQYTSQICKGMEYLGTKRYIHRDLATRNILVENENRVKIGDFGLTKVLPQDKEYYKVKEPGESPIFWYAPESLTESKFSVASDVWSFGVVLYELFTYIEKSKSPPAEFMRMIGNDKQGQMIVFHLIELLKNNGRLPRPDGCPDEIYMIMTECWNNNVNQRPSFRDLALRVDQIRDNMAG
Method: as §1, §2

[3] = Assay Conditions Km (ATP 90 μM for Jak1)
[4] = Assay Conditions Km (ATP 90 μM for Jak1, 30 μM for Jak2)

Row | SMILES | pIC50 ([1]; Assay Conditions 1 mM ATP) | JAK2/JAK1 IC50 ratio ([2]; Assay Conditions 1 mM ATP) | pIC50 [1, 3] | JAK2/JAK1 IC50 ratio [2, 4]
1 | N#CC[C@@H]([C@H]1CCN(c2nccc(C(F)(F)F)c2C#N)C1)n1cc(-c2ncnc3[nH]ccc23)cn1 [Example 50, 2-((3S)-3-{(1S)-2-cyano-1-[4-(7H-pyrrolo[2,3-d]pyrimidin-4-yl)-1H-pyrazol-1-yl]ethyl}pyrrolidin-1-yl)-4-(trifluoromethyl)nicotinonitrile trifluoroacetate] | > 7.30 | 15.4 |  | 
2 | CS(=O)(=O)c1ccnc(N2CC[C@H]([C@H](CC#N)n3cc(-c4ncnc5[nH]ccc45)cn3)C2)c1C#N [Example 128, 2-((3S)-3-{(1S)-2-cyano-1-[4-(7H-pyrrolo[2,3-d]pyrimidin-4-yl)-1H-pyrazol-1-yl]ethyl}pyrrolidin-1-yl)-4-(methylsulfonyl)nicotinonitrile] | > 7.30 | 4.7 |  | 
3 | N#CC[C@@H]([C@H]1CCN(c2c(C#N)cccc2C#N)C1)n1cc(-c2ncnc3[nH]ccc23)cn1 [Example 59, 2-((3S)-3-{(1S)-2-cyano-1-[4-(7H-pyrrolo[2,3-d]pyrimidin-4-yl)-1H-pyrazol-1-yl]ethyl}pyrrolidin-1-yl)isophthalonitrile trifluoroacetate salt] | > 7.30 | 6.5 |  | 
4 | N#Cc1c(N2CC[C@H](C(CF)n3cc(-c4ncnc5[nH]ccc45)cn3)C2)ncc2c1S(=O)(=O)CC2 (single isomer, unassigned) [Example 178] | > 7.30 | 31.8 |  | 
5 | Cn1ccnc(N2CCC(C(CC#N)n3cc(-c4ncnc5[nH]ccc45)cn3)C2)c1=O (racemic) [Example 37, ±3-[1-(4-methyl-3-oxo-3,4-dihydropyrazin-2-yl)pyrrolidin-3-yl]-3-[4-(7H-pyrrolo[2,3-d]pyrimidin-4-yl)-1H-pyrazol-1-yl]propanenitrile trifluoroacetate] | > 7.30 | >8.7 |  | 
6 | N#CCC(C1CCN(c2nc3cccnc3o2)C1)n1ccc(-c2ncnc3[nH]ccc23)c1 (single isomer, unassigned) [32, Step 2a, enantiomer 1] |  |  | > 7.30 | 3.7
7 | N#CCC(C1CCN(c2ccc3c(n2)C(F)(F)CC3)C1)n1cc(-c2ncnc3[nH]ccc23)cn1 (single isomer, unassigned) [Example 157, 3-[1-(7,7-difluoro-6,7-dihydro-5H-cyclopenta[b]pyridin-2-yl)pyrrolidin-3-yl]-3-[4-(7H-pyrrolo[2,3-d]pyrimidin-4-yl)-1H-pyrazol-1-yl]propanenitrile bis(trifluoroacetate)] | > 7.30 | >5.3 |  | 
8 | COCc1cccc(N2CC[C@H]([C@H](CC#N)n3cc(-c4ncnc5[nH]ccc45)cn3)C2)c1C#N [Example 112, 2-((S)-3-((S)-1-(4-(7H-pyrrolo[2,3-d]pyrimidin-4-yl)-1H-pyrazol-1-yl)-2-cyanoethyl)pyrrolidin-1-yl)-6-(methoxymethyl)benzonitrile] | > 7.30 | 35.7 |  | 
9 | N#CCC(C1CCN(c2nccc(C#N)c2Cl)C1)n1cc(-c2ncnc3[nH]ccc23)cn1 (racemic) [Example 38, ±3-chloro-2-(3-{2-cyano-1-[4-(7H-pyrrolo[2,3-d]pyrimidin-4-yl)-1H-pyrazol-1-yl]ethyl}pyrrolidin-1-yl)isonicotinonitrile trifluoroacetate] | 7.00 to 7.30 | 3.3 |  | 
10 | N#CCC(C1CCN(c2ccc3cc[nH]c3n2)C1)n1cc(-c2ncnc3[nH]ccc23)cn1 (stereo not shown) [Example 73, 3-(1-(1H-pyrrolo[2,3-b]pyridin-6-yl)pyrrolidin-3-yl)-3-(4-(7H-pyrrolo[2,3-d]pyrimidin-4-yl)-1H-pyrazol-1-yl)propanenitrile trifluoroacetate] | > 7.30 | 1.7 |  | 
11 | N#Cc1nnccc1N1CC[C@H](C(CF)n2cc(-c3ncnc4[nH]ccc34)cn2)C1 (single isomer, unassigned) [Example 116] | > 7.30 | 6.0 |  | 
12 | N#CC[C@@H]([C@H]1CCN(c2ccnc(C#N)c2C#N)C1)n1cc(-c2ncnc3[nH]ccc23)cn1 [Example 124, 4-((3S)-3-{(1S)-2-cyano-1-[4-(7H-pyrrolo[2,3-d]pyrimidin-4-yl)-1H-pyrazol-1-yl]ethyl}pyrrolidin-1-yl)pyridine-2,3-dicarbonitrile trifluoroacetate] | > 7.30 | >10.5 |  | 
13 | CSc1ccnc(N2CC[C@H]([C@H](CC#N)n3cc(-c4ncnc5[nH]ccc45)cn3)C2)c1C#N [Example 127, 2-((3S)-3-{(1S)-2-cyano-1-[4-(7H-pyrrolo[2,3-d]pyrimidin-4-yl)-1H-pyrazol-1-yl]ethyl}pyrrolidin-1-yl)-4-(methylthio)nicotinonitrile trifluoroacetate] | > 7.30 | 11.0 |  | 
14 | N#CCC(C1CCN(c2ncc3ccoc3c2C#N)C1)n1ccc(-c2ncnc3[nH]ccc23)c1 (racemic) [Example 170-rac, 6-(3-{2-cyano-1-[3-(7H-pyrrolo[2,3-d]pyrimidin-4-yl)-1H-pyrrol-1-yl]ethyl}pyrrolidin-1-yl)furo[3,2-c]pyridine-7-carbonitrile] | > 7.30 | 4.5 |  | 
15 | CSc1nc(N2CC[C@H]([C@H](CC#N)n3cc(-c4ncnc5[nH]ccc45)cn3)C2)c(F)cc1F [Example 129, (3S)-3-{(3S)-1-[3,5-Difluoro-6-(methylthio)pyridin-2-yl]pyrrolidin-3-yl}-3-[4-(7H-pyrrolo[2,3-d]pyrimidin-4-yl)-1H-pyrazol-1-yl]propanenitrile] | > 7.30 | 5.9 |  | 
16 | Cn1ccc2cnc(N3CCC(C(CC#N)n4cc(-c5ncnc6[nH]ccc56)cn4)C3)nc21 (single isomer, unassigned) [Example 17, 3-[1-(7-methyl-7H-pyrrolo[2,3-d]pyrimidin-2-yl)pyrrolidin-3-yl]-3-[4-(7H-pyrrolo[2,3-d]pyrimidin-4-yl)-1H-pyrazol-1-yl]propanenitrile] | 6.30 to 7.00 | 8 |  | 
17 | N#CC[C@@H]([C@H]1CCN(c2nc(S(=O)(=O)CC(F)(F)F)c(F)cc2F)C1)n1cc(-c2ncnc3[nH]ccc23)cn1 [Example 131, (3S)-3-((3S)-1-{3,5-difluoro-6-[(2,2,2-trifluoroethyl)-sulfonyl]pyridin-2-yl}pyrrolidin-3-yl)-3-[4-(7H-pyrrolo[2,3-d]pyrimidin-4-yl)-1H-pyrazol-1-yl]propanenitrile trifluoroacetate] | > 7.30 | 8.1 |  | 
18 | CCCS(=O)(=O)c1ccc(F)c(N2CC[C@H]([C@H](CC#N)n3cc(-c4ncnc5[nH]ccc45)cn3)C2)n1 [Example 99, trifluoroacetate] | > 7.30 | 7.6 |  | 
19 | N#CCC(C1CCN(c2nc3cccnc3o2)C1)n1cc(-c2ncnc3[nH]ccc23)cn1 (single isomer, unassigned) [Example 13a, 3-(1-[1,3]oxazolo[5,4-b]pyridin-2-ylpyrrolidin-3-yl)-3-[4-(7H-pyrrolo[2,3-d]pyrimidin-4-yl)-1H-pyrazol-1-yl]propanenitrile] |  |  | > 7.30 | 12
20 | N#CCC(C1CCN(c2ccc3c(n2)OCC3)C1)n1cc(-c2ncnc3[nH]ccc23)cn1 (single isomer, unassigned) [Example 155, 3-[1-(2,3-dihydrofuro[2,3-b]pyridin-6-yl)pyrrolidin-3-yl]-3-[4-(7H-pyrrolo[2,3-d]pyrimidin-4-yl)-1H-pyrazol-1-yl]propanenitrile] | 7.00 to 7.30 | 5.3 |  | 
21 | COCc1c(F)cnc(N2CC[C@H]([C@H](CC#N)n3cc(-c4ncnc5[nH]ccc45)cn3)C2)c1C#N [Example 95, 2-((3S)-3-{(1S)-2-cyano-1-[4-(7H-pyrrolo[2,3-d]pyrimidin-4-yl)-1H-pyrazol-1-yl]ethyl}pyrrolidin-1-yl)-5-fluoro-4-(methoxymethyl)nicotinonitrile bis(trifluoroacetate)] | > 7.30 | 16.4 |  | 
22 | N#CCC(C1CCN(c2nc3cccnc3o2)C1)n1ccc(-c2ncnc3[nH]ccc23)c1 (single isomer, unassigned) [32, Step 2b (racemate)] |  |  | 7.00 to 7.30 | 0.2
23 | CS(=O)(=O)c1nc(N2CC[C@H]([C@H](CC#N)n3cc(-c4ncnc5[nH]ccc45)cn3)C2)c(F)cc1F [Example 130, (3S)-3-{(3S)-1-[3,5-difluoro-6-(methylsulfonyl)pyridin-2-yl]pyrrolidin-3-yl}-3-[4-(7H-pyrrolo[2,3-d]pyrimidin-4-yl)-1H-pyrazol-1-yl]propanenitrile trifluoroacetate] | > 7.30 | 14.8 |  | 
